{"source": "patent US12281119B2", "about": "“Imidazo[2,1-f][1,2,4]triazin-4-amine derivatives as TLR7 agonist” (BEIGENE, LTD., priority 2019, dated 2025)", "key": {"human TLR 8 protein": {"biological_target": "T1, human TLR 8 protein (Homo sapiens, UniProt Q9NR97)", "T1 construct": "expressed in transfected cells; host or cells: HEK293 (HEK-Blue hTLR8)", "T1 sequence (Q9NR97 27-1041)": "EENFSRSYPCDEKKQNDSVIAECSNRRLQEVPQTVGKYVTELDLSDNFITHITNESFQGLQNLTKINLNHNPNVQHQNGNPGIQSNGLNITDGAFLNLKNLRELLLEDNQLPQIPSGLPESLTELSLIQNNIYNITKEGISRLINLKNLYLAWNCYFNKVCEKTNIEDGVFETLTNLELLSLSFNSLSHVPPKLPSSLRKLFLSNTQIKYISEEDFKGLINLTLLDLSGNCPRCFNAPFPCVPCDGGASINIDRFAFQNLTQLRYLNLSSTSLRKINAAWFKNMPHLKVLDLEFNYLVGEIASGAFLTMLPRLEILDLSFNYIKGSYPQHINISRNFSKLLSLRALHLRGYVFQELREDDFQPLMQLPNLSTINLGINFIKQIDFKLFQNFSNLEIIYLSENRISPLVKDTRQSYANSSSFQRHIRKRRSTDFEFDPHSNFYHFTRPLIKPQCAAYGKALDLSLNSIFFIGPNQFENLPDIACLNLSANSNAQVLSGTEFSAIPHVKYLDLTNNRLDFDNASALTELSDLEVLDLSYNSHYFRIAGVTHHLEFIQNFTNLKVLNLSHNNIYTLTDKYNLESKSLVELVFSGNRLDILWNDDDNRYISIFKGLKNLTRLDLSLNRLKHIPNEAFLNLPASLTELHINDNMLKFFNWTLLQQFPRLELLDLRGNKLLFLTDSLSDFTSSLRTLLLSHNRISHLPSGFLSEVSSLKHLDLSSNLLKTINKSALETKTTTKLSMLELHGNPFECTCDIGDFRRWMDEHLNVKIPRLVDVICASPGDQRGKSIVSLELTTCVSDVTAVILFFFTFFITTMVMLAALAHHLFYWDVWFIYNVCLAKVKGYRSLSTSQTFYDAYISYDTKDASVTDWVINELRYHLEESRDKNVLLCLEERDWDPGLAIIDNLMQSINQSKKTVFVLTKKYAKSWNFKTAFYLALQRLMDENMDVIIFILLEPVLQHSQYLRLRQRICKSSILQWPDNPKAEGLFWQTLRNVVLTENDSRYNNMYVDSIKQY", "assay": "TLR8 stimulation determined using HEK-Blue Detection", "format": "cell-based", "details": "HEK-Blue hTLR8 cells, 16 hr, relative to Resiquimod or Motolimod maximum", "description": "TLR8 Stimulation Determined Using HEK-Blue Detection\nThis assay was designed for studying the stimulation of human TLR 8 protein in HEK-Blue hTLR8 tool cell line by monitoring the activation of NF-1B. HEK-Blue hTLR8 cells were obtained by co-transfection of the hTLR8 gene and an optimized secreted embryonic alkaline phosphatase (SEAP) reporter gene into HEK293 cells. The SEAP reporter gene was placed under the control of the IFN-β minimal promoter fused to five NF-κB and AP-1-binding sites. Stimulation with a TLR 8 ligand activates NF-κB and AP-1 which induce the expression of SEAP. Levels of SEAP can be easily determined with HEK-Blue Detection, a cell culture medium that allows for real-time detection of SEAP. HEK-Blue Detection contains all the nutrients necessary for cell growth and a specific SEAP color substrate. The hydrolysis of the substrate by SEAP produces a purple/blue color that can be measured with a spectrophotometer.\nWhen growing to 50-80% confluency, HEK-Blue hTLR7/8 cells were plated into 96-well plate (costar 3599) at a density of 40000 cells/well. Then compounds were added with serial dilutions over 10 points with a 1 nM-10 uM final concentration range in 0.1% DMSO/HEK-Blue Detection. The plates were then incubated for 16 hr at 37° C. in 5% CO2. The optical density at 620-655 nm was read on BMG PHERAstar FSX instrument. The EC50 for each compound was determined by calculating the percentages of the maximum activation identified with Resiquimod or Motolimod."}, "human TLR7": {"biological_target": "T2, human TLR7 (Homo sapiens, UniProt Q9NYK1)", "T2 sequence (Q9NYK1 27-1049)": "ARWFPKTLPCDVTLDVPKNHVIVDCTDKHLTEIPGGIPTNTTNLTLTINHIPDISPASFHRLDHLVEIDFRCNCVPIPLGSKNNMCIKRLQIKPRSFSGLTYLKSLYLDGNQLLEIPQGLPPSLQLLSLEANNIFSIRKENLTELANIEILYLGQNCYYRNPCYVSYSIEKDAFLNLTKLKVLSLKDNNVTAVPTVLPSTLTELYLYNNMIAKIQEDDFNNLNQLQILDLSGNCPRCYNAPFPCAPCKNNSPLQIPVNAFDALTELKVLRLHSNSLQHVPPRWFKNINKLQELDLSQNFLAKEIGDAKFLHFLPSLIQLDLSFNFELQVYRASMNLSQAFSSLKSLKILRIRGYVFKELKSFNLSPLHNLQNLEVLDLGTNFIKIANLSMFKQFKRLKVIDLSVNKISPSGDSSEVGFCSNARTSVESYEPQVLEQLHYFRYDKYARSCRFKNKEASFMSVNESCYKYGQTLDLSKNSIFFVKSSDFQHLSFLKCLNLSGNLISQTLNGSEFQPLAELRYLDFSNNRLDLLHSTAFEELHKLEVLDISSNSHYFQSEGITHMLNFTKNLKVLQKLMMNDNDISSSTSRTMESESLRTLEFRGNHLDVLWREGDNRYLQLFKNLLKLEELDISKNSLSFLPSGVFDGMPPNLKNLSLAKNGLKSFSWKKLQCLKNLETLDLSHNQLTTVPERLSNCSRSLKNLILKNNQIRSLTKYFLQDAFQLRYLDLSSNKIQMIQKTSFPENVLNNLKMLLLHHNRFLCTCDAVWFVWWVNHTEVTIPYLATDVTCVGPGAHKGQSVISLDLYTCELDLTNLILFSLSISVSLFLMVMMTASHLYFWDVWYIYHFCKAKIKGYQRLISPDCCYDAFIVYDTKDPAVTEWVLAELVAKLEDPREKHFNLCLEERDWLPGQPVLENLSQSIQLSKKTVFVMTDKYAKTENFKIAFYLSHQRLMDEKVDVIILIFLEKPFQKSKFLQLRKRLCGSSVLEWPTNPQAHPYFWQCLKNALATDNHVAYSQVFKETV", "assay": "TLR7 stimulation determined using HEK-Blue Detection", "format": "cell-based", "parameters": "expressed in transfected cells; host or cells: HEK293 (HEK-Blue hTLR7)", "details": "HEK-Blue hTLR7 cells, HEK-Blue Detection (A77-A124), 16 hr, relative to Resiquimod maximum", "description": "TLR7 Stimulation Determined Using HEK-Blue Detection\nThis assay was designed for studying the stimulation of human TLR7 protein in HELK-Blue hTLR7 tool cell line by monitoring the activation of NF-κB. HEK-Blue hTLR7 cells were obtained by co-transfection of the hTLR7 gene and an optimized secreted embryonic alkaline phosphatase (SLAP) reporter gene into HEK293 cells. The SLAP reporter gene was placed under the control of the IFN-β minimal promoter fused to five NF-κB and AP-1-binding sites. Stimulation with a TLR7 ligand activates NF-κB and AP-1 which induce the expression of SLAP. Levels of SLAP can be easily determined with HEK-Blue Detection, a cell culture medium that allows for real-time detection of SLAP. HLK-Blue Detection contains all the nutrients necessary for cell growth and a specific SLAP color substrate. The hydrolysis of the substrate by SLAP produces a purple/blue color that can be measured with a spectrophotometer.\nWhen growing to 50-80%0 confluency, HLK-Blue hTLR7 cells were plated into 96-well plate (costar 3599) at a density of 40000 cells/well. Then compounds were added with serial dilutions over 10 points with a 0.04 nM-10 μM final concentration range in 0.1% DMSO/BLK-Blue Detection. The plates were then incubated for 16 hr at 37° C. in […] and vortex for 30s before measurement. The optical density at 620-655 nm was read on BMG PHLRAstar FSX instrument. The EC50 for each compound was determined by calculating the percentages of the maximum activation identified with Resiquimod."}}}
{"smiles": "CCCC(CCO)Oc1nc(N)c2ncc(Cc3ccc(OCCNC)c(F)c3)n2n1", "note": "(single isomer, unassigned) [Compound A105, (R or S)-3-((4-amino-7-(3-fluoro-4-(2-(methylamino)ethoxy)benzyl)imidazo[2,1-f][1,2,4]triazin-2-yl)oxy)hexan-1-ol]", "values": [{"measurement": "EC50", "setting": "human TLR 8 protein", "value": 622, "unit": "nM"}, {"measurement": "EC50", "setting": "human TLR7", "value": 61, "unit": "nM"}]}
{"smiles": "CCCC(CCO)Oc1nc(N)c2ncc(Cc3ccc(N(C)CCNC)cc3)n2n1", "note": "(stereo not drawn) [Compound A94, 3-((4-amino-7-(4-(methyl(2-(methylamino)ethyl)amino)benzyl)imidazo[2,1-f][1,2,4]triazin-2-yl)oxy)hexan-1-ol]", "values": [{"measurement": "EC50", "setting": "human TLR 8 protein", "value": 146, "unit": "nM"}, {"measurement": "EC50", "setting": "human TLR7", "value": 13.8, "unit": "nM"}]}
{"smiles": "CCCC(CCO)Oc1nc(N)c2ncc(Cc3c(F)cc(OCCNC)cc3F)n2n1", "note": "(single isomer, unassigned) [Compound A123, (R or S)-3-((4-amino-7-(2,6-difluoro-4-(2-(methylamino)ethoxy)benzyl)imidazo[2,1-f][1,2,4]triazin-2-yl)oxy)hexan-1-ol]", "values": [{"measurement": "EC50", "setting": "human TLR 8 protein", "value": 15, "unit": "nM"}, {"measurement": "EC50", "setting": "human TLR7", "value": 0.7, "unit": "nM"}]}
{"smiles": "CCCC(CCO)Oc1nc(N)c2ncc(Cc3ccc(OCCNC)cc3C)n2n1", "note": "(single isomer, unassigned) [Compound A107, (R or S)-3-((4-amino-7-(2-methyl-4-(2-(methylamino)ethoxy)benzyl)imidazo[2,1-f][1,2,4]triazin-2-yl)oxy)hexan-1-ol]", "values": [{"measurement": "EC50", "setting": "human TLR 8 protein", "value": 16, "unit": "nM"}, {"measurement": "EC50", "setting": "human TLR7", "value": 1.3, "unit": "nM"}]}
{"smiles": "CCCC(C)Oc1nc(N)c2ncc(Cc3ccc(OCCNC)nc3)n2n1", "note": "(stereo not drawn) [Compound A77, 7-((6-(2-(methylamino)ethoxy)pyridin-3-yl)methyl)-2-(pentan-2-yloxy)imidazo[2,1-f][1,2,4]triazin-4-amine]", "values": [{"measurement": "EC50", "setting": "human TLR 8 protein", "value": 293, "unit": "nM"}, {"measurement": "EC50", "setting": "human TLR7", "value": 19.2, "unit": "nM"}]}
{"smiles": "CCCC(C)Oc1nc(N)c2ncc(Cc3cnc(OCCNC)c(C)c3)n2n1", "note": "(stereo not drawn) [Compound A78, 7-((5-methyl-6-(2-(methylamino)ethoxy)pyridin-3-yl)methyl)-2-(pentan-2-yloxy)imidazo[2,1-f][1,2,4]triazin-4-amine]", "values": [{"measurement": "EC50", "setting": "human TLR 8 protein", "value": 1140, "unit": "nM"}, {"measurement": "EC50", "setting": "human TLR7", "value": 23, "unit": "nM"}]}
{"smiles": "CCCC(CCO)Oc1nc(N)c2ncc(Cc3ccc(CCCNC)cc3)n2n1", "note": "(single isomer, unassigned) [Compound A110, (R or S)-3-((4-amino-7-(4-(3-(methylamino)propyl)benzyl)imidazo[2,1-f][1,2,4]triazin-2-yl)oxy)hexan-1-ol]", "values": [{"measurement": "EC50", "setting": "human TLR 8 protein", "value": 65, "unit": "nM"}, {"measurement": "EC50", "setting": "human TLR7", "value": 4, "unit": "nM"}]}
{"smiles": "CCCC(CCO)Oc1nc(N)c2ncc(Cc3ccc(OCCNC)nc3)n2n1", "note": "(single isomer, unassigned) [Compound A82, (S or R) 3-((4-amino-7-((6-(2-(methylamino)ethoxy)pyridin-3-yl)methyl)imidazo[2,1-f][1,2,4]triazin-2-yl)oxy)hexan-1-ol]", "values": [{"measurement": "EC50", "setting": "human TLR 8 protein", "value": 22, "unit": "nM"}, {"measurement": "EC50", "setting": "human TLR7", "value": 5, "unit": "nM"}]}
{"smiles": "CCCC(CCO)Oc1nc(N)c2ncc(Cc3ccc(OCCNC)nc3)n2n1", "note": "(stereo not drawn) [Compound A79, 3-((4-amino-7-((6-(2-(methylamino)ethoxy)pyridin-3 yl)methyl)imidazo[2,1-f][1,2,4]triazin-2-yl)oxy)hexan-1-ol]", "values": [{"measurement": "EC50", "setting": "human TLR 8 protein", "value": 69, "unit": "nM"}, {"measurement": "EC50", "setting": "human TLR7", "value": 10, "unit": "nM"}]}
{"smiles": "CCCC(CCO)Oc1nc(N)c2ncc(Cc3cccc(OCCNC)c3)n2n1", "note": "(single isomer, unassigned) [Compound A104, (R or S)-3-((4-amino-7-(3-(2-(methylamino)ethoxy)benzyl)imidazo[2,1-f][1,2,4]triazin-2-yl)oxy)hexan-1-ol]", "values": [{"measurement": "EC50", "setting": "human TLR 8 protein", "value": 24, "unit": "nM"}, {"measurement": "EC50", "setting": "human TLR7", "value": 10, "unit": "nM"}]}
{"smiles": "CCCC(CCO)Oc1nc(N)c2ncc(Cc3ccc(OCCCNC)nc3)n2n1", "note": "(stereo not drawn) [Compound A86, 3-((4-amino-7-((6-(3-(methylamino)propoxy)pyridin-3-yl)methyl)imidazo[2,1-f][1,2,4]triazin-2-yl)oxy)hexan-1-ol]", "values": [{"measurement": "EC50", "setting": "human TLR 8 protein", "value": 541, "unit": "nM"}, {"measurement": "EC50", "setting": "human TLR7", "value": 57.7, "unit": "nM"}]}
{"smiles": "CCCC(CCO)Oc1nc(N)c2ncc(Cc3ccc(OCCNC)cc3OCC)n2n1", "note": "(single isomer, unassigned) [Compound A121, (R or S)-3-((4-amino-7-(2-ethoxy-4-(2-(methylamino)ethoxy)benzyl)imidazo[2,1-f][1,2,4]triazin-2-yl)oxy)hexan-1-ol]", "values": [{"measurement": "EC50", "setting": "human TLR 8 protein", "value": 19, "unit": "nM"}, {"measurement": "EC50", "setting": "human TLR7", "value": 0.63, "unit": "nM"}]}
